Source: ChEMBL document CHEMBL1158996, “Antiviral phloroglucinols from New Zealand Kunzea species” (1992)

How the values were obtained:
[1] = tested on: Human alphaherpesvirus 1; assay: Antiviral activity against Herpes simplex virus type 1 assessed as inhibition of virus-induced cytopathic effect at 5 ug/disk; format: functional; details: read-out: IZ
[2] = tested on: Poliovirus 1; assay: Antiviral activity against Poliovirus type 1 assessed as inhibition of virus-induced cytopathic effect at 5 ug/disk; format: functional; details: Enterovirus C; read-out: IZ

SMILES	zone of inhibition at 5 µg/disc [1] [mm]	zone of inhibition at 5 µg/disc [2] [mm]
COc1cc(O)c(C(=O)C(C)C)c(O)c1	17	17
COc1cc(O)cc(O)c1C(=O)C(C)C [ROBUSTAOL B]	17	17
